Measurements from US9012446B2, “Amino-oxazines and amino-dihydrothiazine compounds as beta-secretase modulators and methods of use” (Amgen Inc., priority 2010, dated 2015).
Like-named read-outs stand apart in the source and are kept apart here.

What was measured:
[1] = tested on: Aβ40; assay: In vitro BACE cell-based assay (Aβ40 sandwich ELISA, cells stably expressing APP)
Method in brief: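 APP-stably-expressing cells, grown 24 h in DMEM/10% FBS, received 10-point compound doses starting at 100 μM or 10 μM (0.1% DMSO final). Secreted Aβ40 in supernatants measured by sandwich ELISA with time-resolved europium fluorescence; IC50 from percent inhibition versus concentration.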

[2] = tested on: Abeta 40; assay: In vivo inhibition of beta-secretase: Abeta 40 reduction in CSF and brain of the rat; conditions: 10 mpk, after 4 hrs
From the text: In Vivo Inhibition of Beta-Secretase
Several animal models, including mouse, rat, dog, and monkey, may be used to screen for inhibition of beta-secretase activity in vivo following administration of a test compound sample. Animals used in this invention can be wild type, transgenic, or gene knockout animals. For example, the Tg2576 mouse model, prepared and conducted as described in Hsiao et al., 1996, Science 274, 99-102, and other non-transgenic or gene knockout animals are useful to analyze in vivo inhibition of Amyloid beta peptide (Abeta) production in the presence of inhibitory test compounds. Generally, 2 to 18 month old Tg2576 mice, gene knockout mice or non-transgenic animals are administered test compounds formulated in vehicles, such as cyclodextran, phosphate buffers, hydroxypropyl methylcellulose or other suitable vehicles. One to twenty-four hours following the administration of compound, animals are sacrificed, and brains as well as cerebrospinal fluid (CSF) and plasma are removed for analysis of A-beta levels and drug or test compound concentrations (Dovey et al., 2001, Journal of Neurochemistry, 76,173-181) Beginning at time 0, animals are administered by oral gavage, or other means of delivery such as intravenous injection, an inhibitory test compound of up to 100 mg/kg in a standard, conventional formulation, such as 2% hydroxypropyl methylcellulose, 1% Tween80. A separate group of animals receive 2% hydroxypropyl methylcellulose, 1% Tween80 alone, containing no test compound, and serve as a vehicle-control group. At the end of the test period, animals are sacrificed and brain tissues, plasma or cerebrospinal fluid are collected. Brains are either homogenized in 10 volumes (w/v) of 0.2% diethylamine (DEA) in 50 mM NaCl (Best et al., 2005, Journal of Pharmacology and Experimental Therapeutics, 313, 902-908), or in 10 volumes of 0.5% TritonX-100 in Tris-buffered saline (pH at about 7.6). Homogenates are centrifuged at 355,000 g, 4° C. for 30 minutes. CSF or brain supernatants are then analyzed for the presence of A-beta peptide by specific sandwich ELISA assays based on ECL (Electrochemiluminescence) technology. For example, rat Abeta40 is measured using biotinylated-4G8 (Signet) as a capture antibody and Fab40 (an in-house antibody specific to the C-terminal of Abeta40) as a detection antibody. For example, 4 hours after administration of 30 mg/kg oral dose of the test compound in 2% hydroxypropyl methylcellulose, 1% Tween80 (pH2.2) to 200 g male Sprague Dawley rats, amyloid beta peptide levels are measured for reduction by X % and Y % in cerebrospinal fluid and brain, respectively, when compared to the levels measured in the vehicle-treated rats. • Actual vehicles used: Oral: 2% HPMC, 1% Tween80, pH 2.2 • IV: 5% EtOH, 45% Propylene glycol in 5% Dextrose
The compounds of the invention may be shown to reduce the formation and/or deposition of amyloid beta peptide in the cerebrospinal fluid (CSF) as well as in the brain of a mouse or rat at either 3 mpk, 10 mpk or 30 mpk (mpk=mg compound per kg weight of the animal) dosing concentrations after 4 hrs.

[3] = target: BACE (Homo sapiens, UniProt P56817); assay: In vitro enzymatic BACE FRET assay; format: biochemical; conditions: average IC50, enzyme assay; read-out: BACE 1 FRET assay
BACE, sequence (P56817 46-501, species assumed): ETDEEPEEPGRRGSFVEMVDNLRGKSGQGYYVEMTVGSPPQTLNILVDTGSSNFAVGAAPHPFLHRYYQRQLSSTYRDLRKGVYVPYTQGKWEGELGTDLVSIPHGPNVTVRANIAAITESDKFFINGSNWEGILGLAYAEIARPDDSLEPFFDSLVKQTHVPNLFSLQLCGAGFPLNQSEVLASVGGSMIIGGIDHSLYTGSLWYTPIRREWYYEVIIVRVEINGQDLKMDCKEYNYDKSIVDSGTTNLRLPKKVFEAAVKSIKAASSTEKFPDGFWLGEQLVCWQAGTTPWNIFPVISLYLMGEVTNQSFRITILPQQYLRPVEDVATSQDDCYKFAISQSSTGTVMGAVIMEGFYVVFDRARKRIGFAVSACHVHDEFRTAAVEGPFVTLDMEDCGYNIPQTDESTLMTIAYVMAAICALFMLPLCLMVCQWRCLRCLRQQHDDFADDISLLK
Method in brief: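 BACE (0.2 nM) preincubated 1 h with serially diluted inhibitors in 0.05 M acetate pH 4.2, 10% DMSO, 100 uM genapol. FRET peptide substrate (50 nM) added, 1 h incubation, then stopped with Tris to neutral pH. Fluorescence from cleavage read at […].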

[4] = Homo sapiens, HEK293, average IC50, cell assay, HEK cells
[5] = Homo sapiens, HEK293, average IC50, read-out: HEK cell assay

Row | IC50 [1, 4] [nM] | IC50 [3] [nM] | IC50 [1, 5] [nM] | Structure (SMILES) | other results
1 | 2.6 | – | – | NC1=N[C@@]2(COC1)c1cc(-c3cccnc3F)ccc1Oc1c(F)cc(N3CCC(F)(F)CC3)cc12 [Example 86, (S)-2′-(4,4-difluoropiperidin-1-yl)-4′-fluoro-7′-(2-fluoropyridin-3-yl)-2,6-dihydrospiro[[1,4]oxazine-3,9′-xanthen]-5-amine] | inhibition in vivo at 10 mg/kg ([2]; Abeta 40, rat CSF, read-out: % reduction of rat CSF levels at 10 pmk): 12%; inhibition in vivo at 10 mg/kg ([2]; Abeta 40, rat brain, read-out: % reduction of rat brain levels at 10 mpk): 11%
2 | – | 2.3 | 2.8 | NC1=N[C@@]2(COC1)c1cc(-c3cc(F)ccc3F)ccc1Oc1ncc(-c3cccnc3)cc12 [compound 216] | –
3 | 0.2 | 0.5 | – | NC1=N[C@@]2(COC1)c1cc(-c3cncc(F)c3)ccc1Oc1cnc(C3=CCCOC3)cc12 [compound 121] | –
4 | 1.2 | 0.4 | – | NC1=N[C@@]2(COC1)c1cc(-c3cccnc3F)ccc1Oc1cnc(C3=CCOCC3)cc12 [compound 71] | –
5 | – | 525 | 245 | CC1(COc2cc(F)c3c(c2)[C@@]2(CCOC(N)=N2)c2cc(-c4cccnc4F)ccc2O3)COC1 [compound 171] | –
6 | 1.2 | 0.5 | – | CC1(C#Cc2cnc3c(c2)[C@]2(COCC(N)=N2)c2cc(-c4cc(Cl)ccc4F)ccc2O3)COC1 [compound 95] | –
7 | 1.3 | 2 | – | CC1(C#Cc2cnc3c(c2)[C@]2(COCC(N)=N2)c2cc(-c4cccnc4F)ccc2O3)COC1 [compound 87] | –
8 | 2590 | 368 | – | NC1=N[C@@]2(COC1)c1cc(O)ccc1Oc1c(F)cc(-c3ccnc(F)c3)cc12 [Example 39, (S)-5-amino-4′-fluoro-2′-(2-fluoropyridin-4-yl)-2,6-dihydrospiro[[1,4]oxazine-3,9′-xanthen]-7′-ol] | –
9 | – | 6.7 | 11.5 | NC1=N[C@@]2(COC1)c1cc(-c3cccnc3F)ccc1Oc1cnc(OC(F)F)cc12 [Example 49, (S)-3-(difluoromethoxy)-7-(2-fluoropyridin-3-yl)-2′,6′-dihydrospiro[chromeno[2,3-c]pyridine-5,3′-[1,4]oxazin]-5′-amine] | –
10 | – | 0.6 | 0.8 | NC1=N[C@@]2(COC1)c1cc(-c3cccnc3F)ccc1Oc1c2cc(C2=CCOCC2)nc1F [compound 247] | –
11 | – | 5.9 | 24.8 | CC(C)(C)C#Cc1ccc2c(c1)[C@@]1(COCC(N)=N1)c1cc(-c3ccnc(F)c3)cnc1O2 [compound 219] | –
12 | 4.1 | 3.7 | – | NC1=N[C@@]2(COC1)c1cc(-c3cccnc3F)ccc1Oc1cnc([C@@H]3CCCOC3)cc12 [compound 81] | –

Continued, compound first:

Row | Structure (SMILES) | IC50 [1, 4] [nM] | IC50 [3] [nM] | IC50 [1, 5] [nM] | other results
13 | NC1=N[C@@]2(CCO1)c1cc(-c3cccnc3F)ccc1Oc1ncc(C3=CCOCC3)cc12 [compound 269] | – | 12 | 5.6 | –
14 | NC1=N[C@@]2(COC1)c1cc(-c3cncnc3)ccc1Oc1cnc(-c3ccnc(F)c3)cc12 [compound 78] | 1.1 | 0.5 | – | –
15 | NC1=N[C@]2(CCO1)c1cc(-c3cccnc3F)ccc1Oc1c(F)cc(C3=CCCOC3)cc12 [compound 172] | – | 1190 | 1070 | –
16 | CC(C)(C)COc1cc2c(c(F)n1)Oc1ccc(-c3cccnc3F)cc1[C@]21COCC(N)=N1 [Example 59B, (R)-1-fluoro-7-(2-fluoropyridin-3-yl)-3-(neopentyloxy)-2′,6′-dihydrospiro[chromeno[2,3-c]pyridine-5,3′-[1,4]oxazin]-5′-amine] | – | 84.9 | 370 | –
17 | NC1=N[C@]2(CO[C@@H]1C1CCOCC1)c1cc(-c3cccnc3F)ccc1Oc1cnc(Cl)cc12 (racemic) [compound 207] | – | 11.5 | – | IC50 ([1]; average IC50, read-out: HEK cell assay): 21.3 nM
18 | NC1=N[C@@]2(CCO1)c1cc(-c3cccnc3F)ccc1Oc1cnc(C3CCOCC3)cc12 [compound 144] | 35.4 | 13.2 | – | –
19 | NC1=N[C@]2(CCS1)c1cc(-c3cccnc3F)ccc1Oc1ncc(C3=CCCOC3)cc12 [compound 271] | – | 1040 | 2540 | –
20 | NC1=N[C@]2(CCS1)c1cc(-c3cccnc3F)ccc1Oc1cnc(-c3ccnc(F)c3)cc12 [compound 189] | – | 2390 | 3280 | –
21 | COc1cc(F)c2c(c1)[C@]1(CCOC(N)=N1)c1cc(-c3cccnc3F)ccc1O2 [compound 175, (4S)-4′-fluoro-7′-(2-fluoro-3-pyridinyl)-2′-methoxy-5,6-dihydrospiro[1,3-oxazine-4,9′-xanthen]-2-amine] | – | 38.3 | 93 | –
22 | NC1=N[C@]2(CCO1)c1cc(-c3cccnc3F)ccc1Oc1ncc(-c3ccnc(F)c3)cc12 [compound 267] | – | 6670 | 3560 | –
23 | NC1=N[C@@]2(CCO1)c1cc(-c3cccnc3F)ccc1Oc1c2cc(-c2cccnc2)nc1F [Example 241, (S)-1-fluoro-7-(2-fluoropyridin-3-yl)-3-(pyridin-3-yl)-5′,6′-dihydrospiro[chromeno[2,3-c]pyridine-5,4′-[1,3]oxazin]-2′-amine] | – | 0.6 | 0.9 | –
24 | NC1=N[C@@]2(CCO1)c1cc(-c3cccnc3F)ccc1Oc1cnc(-c3cncc(Cl)c3)cc12 [compound 141] | 22.5 | 9.5 | – | –
25 | NC1=N[C@]2(CCS1)c1cc(-c3cccnc3F)ccc1Oc1cnc(C3=CCCOC3)cc12 [compound 195] | – | 922 | 1970 | –
26 | N#Cc1cccc(-c2ccc3c(c2)[C@@]2(CCOC(N)=N2)c2cc(-c4ccnc(F)c4)nc(F)c2O3)c1 [compound 225] | – | 0.7 | 3 | –
27 | NC1=N[C@]2(CCO1)c1cc(-c3cccnc3)ccc1Oc1c(F)cc(C3=CCOCC3)cc12 [compound 157] | 78.1 | 784 | – | –
28 | CC(C)(F)COc1cc(F)c2c(c1)[C@]1(CCSC(N)=N1)c1cc(-c3cccnc3F)ccc1O2 [Example 204, (S)-4′-fluoro-2′-(2-fluoro-2-methylpropoxy)-7′-(2-fluoropyridin-3-yl)-5,6-dihydrospiro[[1,3]thiazine-4,9′-xanthen]-2-amine] | – | 2.8 | 11.2 | –
29 | NC1=N[C@]2(CCO1)c1cc(-c3cccnc3F)ccc1Oc1cnc(-c3cccnc3)cc12 [compound 147] | 132 | 132 | – | –
30 | CC(C)(F)COc1cc(F)c2c(c1)[C@@]1(CCOC(N)=N1)c1cc(-c3cccnc3)ccc1O2 [compound 158] | 393 | 941 | – | –
31 | NC1=N[C@]2(CCO1)c1cc(-c3cncc(F)c3)ccc1Oc1c2cc(C2=CCCOC2)nc1F [compound 232] | – | 793 | 164 | –
32 | N#Cc1cccc(-c2ccc3c(c2)[C@@]2(CCOC(N)=N2)c2cc(C4=CCCOC4)nc(F)c2O3)c1 [compound 223] | – | 0.8 | 1.4 | –
33 | NC1=N[C@@]2(COC1)c1cc(-c3cccnc3F)ccc1Oc1c2cc(-c2cncc(F)c2)nc1F [compound 245] | – | 0.3 | 0.3 | –
34 | CC1(COc2cc(F)c3c(c2)[C@@]2(CCOC(N)=N2)c2cc(-c4cccnc4)ccc2O3)COC1 [compound 161] | 333 | 2780 | – | –
35 | NC1=NC2(CCS1)c1cc(-c3cccnc3)ccc1Oc1ccc(-c3cccnc3)cc12 [compound 99] | 118 | 81.8 | – | –
36 | NC1=N[C@]2(CCO1)c1cc(-c3cccnc3)ccc1Oc1c(F)cc(C3=CCCOC3)cc12 [compound 159] | 71.3 | 616 | – | –
